The data set is described as follows: solvent given as SMILES.

Several values for one entry are separate records, joined by “and”; a condition that tells them apart may be missing. Identical values can stand only once.

The text below walks through data of the Deep4Chem optical property database.

As to `Nc1cccc2c1C(=O)NC2=O`, the fluorescence lifetime (in C1CCOC1) came to 15.2 ns, the fluorescence lifetime (in CCO) came to 16.3 ns and the fluorescence lifetime (in CN(C)C=O) is 15.8 ns.
Compound `CN(C)c1ccc(C2=Nc3scc(-c4ccccc4)[n+]3[B-](F)(F)O2)cc1` came in with a fluorescence lifetime (in C1CCOC1) of 2.06 ns.
With `COc1ccc(-c2cc(-c3ccc(OC)cc3)c3c(N)nc(N4CCCC4)c(C#N)c3n2)cc1`, the fluorescence lifetime is 11.6 ns (in CC#N); 10 ns (in CC(C)=O); 11.6 ns (in CC(C)O); 10.3 ns (in CO); 11.6 ns (in ClC(Cl)Cl); 13.2 ns (in ClCCl). For the same compound, where the note is “in c1ccccc1”, the fluorescence lifetime was 12 ns.
With `CCCCn1c(-c2ccc(-c3nnc(-c4cccs4)o3)cc2)nc(-c2ccccc2)c1-c1ccccc1`, the fluorescence lifetime (in ClCCl) was 1.65 ns.
Regarding `CN(C)c1ccc(C2=Nc3sc4c(F)c(F)c(F)c(F)c4[n+]3[B-](F)(F)O2)cc1`, for the setting “in Cc1ccccc1”, the fluorescence lifetime amounted to 2 ns.
For the setting “in ClCCl”, `Cc1ccc(C(=O)c2c(C)c3ccc4cccc5c6cccc7ccc2c(c76)c3c45)cc1` gave a fluorescence lifetime of 3.6 ns.
With `O=C1c2ccccc2-c2ccc(Nc3nc(Cl)nc(Cl)n3)c3cccc1c23`, the fluorescence lifetime by setting is: (in CC#N) 6.6 ns; (in CC(C)=O) 4.5 ns; (in CC(C)O) 7.7 ns; (in CCCCOCCCC) 0.5 ns; (in CCOC(C)=O) 1.6 ns; (in CCOCC) 0.7 ns. For the same compound, the fluorescence lifetime is, setting by setting: (in CO) 7.6 ns; (in Cc1ccccc1) 0.9 ns; (in Clc1ccccc1) 2 ns; (in N#Cc1ccccc1) 6 ns; (in O=C1CCCCC1) 3.4 ns.
For `Fc1ccc(-[c+]2c3ccccc3oc3ccccc32)cc1`, the fluorescence lifetime (in CC#N) came to 18.8 ns.
As to `Cc1cc(=O)oc2c3c4c(cc12)CCCN4CCC3`, the fluorescence lifetime was 2.6 ns (in C1CCCCC1); 3.3 ns (in CC#N); 4.26 ns (in CCC#N); 3.75 ns (in CCCCl); 4.5 ns and 4.54 ns (in CCO); 5.9 ns (in O). Further, the fluorescence lifetime was found to be 6.88 ns (in OC(C(F)(F)F)C(F)(F)F) and 6.36 ns (in OCC(F)(F)F).
For the setting “in C1CCCCC1”, `COc1ccccc1` came in with a fluorescence lifetime of 11.1 ns.
For the compound `Cc1ccc(-c2ccc(-c3ccc(C)cc3)c(/C(=C(/c3ccccc3)c3cc(-c4ccc(C)cc4)ccc3-c3ccc(C)cc3)c3ccccc3)c2)cc1`, the fluorescence lifetime (in C1CCOC1) was found to be 8 ns.
Take `C[Si]1(C)c2ccc(C#Cc3ccccc3)cc2C=Cc2cc(C#Cc3ccccc3)ccc21`: where the note is “in ClCCl”, the fluorescence lifetime amounted to 3.8 ns.
`Cc1cc(C)c(C2=C3C=CC=[N+]3[B-]3(c4ccc5ccc6cccc7ccc4c5c67)Oc4cc(O)cc5c6ccc(C)cc6c6cc2n3c6c45)c(C)c1` (stereo unspecified) gave a fluorescence lifetime (in ClC(Cl)Cl) of 3.5 ns.
Consider `CCCCCCCCCCCCN1C(=O)c2c(c3ccc4cc(-c5ccc(Cl)cc5)c(OC)cc4c3c3c2ccc2cc(-c4ccc(Cl)cc4)c(OC)cc23)C1=O`, for which, under “in ClCCl”, the fluorescence lifetime is 6.15 ns.
For `CC1=C2c3ccccc3C(c3ccc[nH]3)=[N+]2[B-](F)(F)n2cccc21`, the fluorescence lifetime (in ClCCl) was 6.71 ns.
Take `Cc1ccccc1-c1cc(-c2ccc(N3c4ccccc4C(C)(C)c4ccccc43)cc2)nc(-c2ccccc2)n1`: the fluorescence lifetime (in Cc1ccccc1) is 2.76 ns and the fluorescence lifetime (in ClCCl) was 22.7 ns.
On to `COc1ccc(C2=Cc3cc4ccccc4cc3P2(=O)c2ccccc2)cc1` (stereo unspecified), for which the fluorescence lifetime (in ClCCl) came to 3.8 ns.
Consider `Cc1nnc(-c2ccc(-n3c4ccccc4c4ccccc43)cc2)o1`, for which, for the setting “in CCO”, the fluorescence lifetime worked out at 2.07 ns.
Take `c1ccc(-c2nc(-c3ccccc3)nc(-c3ccc(-c4ccc(N5c6ccccc6[Si](c6ccccc6)(c6ccccc6)c6ccccc65)cc4)cc3)n2)cc1`: the fluorescence lifetime (in c1cc(-n2c3ccccc3c3ccccc32)cc(-n2c3ccccc3c3ccccc32)c1) stood at 6 ns.
Regarding `O=S1(=O)c2ccccc2-c2cc(-c3c4ccccc4cc4ccccc34)ccc21`, the fluorescence lifetime (in C1CCCCC1) amounted to 3.3 ns, the fluorescence lifetime (in CC#N) was 3.8 ns and the fluorescence lifetime (in ClCCl) is 3.4 ns.
The compound `C(=C\N1CCCC1)/c1nc2ccccc2nc1-c1ccccc1` returned a fluorescence lifetime (in C1CCCCC1) of 2.3 ns; a fluorescence lifetime (in C1CCOC1) of 8.42 ns; a fluorescence lifetime (in CC#N) of 5.28 ns; a fluorescence lifetime (in CC(C)=O) of 6.88 ns; a fluorescence lifetime (in CCO) of 0.49 ns; a fluorescence lifetime (in CO) of 0.15 ns. The fluorescence lifetime is, setting by setting: (in CS(C)=O) 2.97 ns; (in Cc1ccccc1) 6.52 ns; (in ClCCl) 10.2 ns.
For the compound `O=C1c2ccccc2-c2cnccc21`, the fluorescence lifetime by setting is: (in CC#N) 6.7 ns; (in CCOC(C)=O) 2.4 ns; (in Cc1ccccc1) 2.2 ns; (in ClCCl) 6.1 ns.
Consider `CCCCCCOc1cc(C=C2C(=O)c3ccccc3C2=O)c(OCCCCCC)cc1C=C1C(=O)c2ccccc2C1=O`, for which, where the note is “in ClCCl”, the fluorescence lifetime was found to be 5.4 ns.
On the same count and under the same terms, next, `F[B-]1(F)n2c(c3cccc4cccc2c43)=Nc2cccc(Cl)[n+]21`: 6.4 ns.
Under “in C1CCCCC1”, `CN(C)c1ccc(/C=C/C=C/c2ccc(B(O)O)cc2)cc1` displayed a fluorescence lifetime of 0.621 ns.
Turning to `N#C/C(=C\c1ccc(C=C(c2ccccc2)c2ccccc2)cc1)c1ccccc1`, under “in C1CCOC1”, the fluorescence lifetime was determined as 1 ns.
`CCCCCCN1C(=O)c2cccc3cc(/N=C\c4ccc5c(c4)c4ccccc4n5CC)cc(c23)C1=O` gave a fluorescence lifetime (in ClC(Cl)Cl) of 8.97 ns.
For the setting “in C1CCOC1”, `COc1cc2c(cc1-c1ccc(C#N)cc1)Cc1c3c(c4c(c1-2)-c1cc(OC)c(-c2ccc(C#N)cc2)cc1C4)C(=O)N(CCC(C)C)C3=O` came in with a fluorescence lifetime of 2.1 ns.
With `CC1=[N+]2C(=C(c3ccc(C#N)cc3)c3ccc(C)n3[B-]2(F)F)C=C1`, the fluorescence lifetime (in Cc1ccccc1) came to 0.55 ns.
For the compound `CC(C)n1c(=O)c2cc3ccc4cccc5ccc(c2c1=O)c3c45`, the fluorescence lifetime (in ClC(Cl)Cl) was 5.16 ns.
Compound `CC1(C)C(/C=C/C2=C(c3ccc(C(=O)O)cc3)C(=C/C=C3/N(CCCCS(=O)(=O)[O-])c4ccc(S(=O)(=O)[O-])cc4C3(C)C)/CCC2)=[N+](CCCCS(=O)(=O)[O-])c2ccc(S(=O)(=O)[O-])cc21` gave a fluorescence lifetime (in CC(C)=O) of 1.02 ns; a fluorescence lifetime (in CCO) of 1 ns; a fluorescence lifetime (in CO) of 0.81 ns; a fluorescence lifetime (in CS(C)=O) of 1.33 ns; a fluorescence lifetime (in O) of 0.44 ns.
With `c1ccc2c(c1)OP1(=NP(Oc3ccc4ccc5cccc6ccc3c4c56)(Oc3ccc4ccc5cccc6ccc3c4c56)=NP(Oc3ccc4ccc5cccc6ccc3c4c56)(Oc3ccc4ccc5cccc6ccc3c4c56)=N1)Oc1ccccc1-2`, the fluorescence lifetime (in ClCCl) amounted to 1.23 ns.
Regarding `CCCCOC(=O)c1cc(Cl)c2c3c(Cl)cc4c5c(cc(Cl)c(c6c(Oc7ccc(C(=O)OC)cc7)cc(C(=O)OCCCC)c1c26)c53)C(=O)N(c1c(C(C)C)cccc1C(C)C)C4=O`, the fluorescence lifetime (in Cc1ccccc1) is 6.09 ns.
`N#C[Se]CCCCCOc1ccc2ccc(=O)oc2c1`: the fluorescence lifetime turned out to be 0.16 ns (in C1CCCCC1); 1.17 ns (in C1CCOC1); 0.17 ns (in C1COCCO1); 0.56 ns (in CC#N); 0.16 ns (in CCCCCCC); 0.43 ns (in CCO). The fluorescence lifetime runs as follows: (in CN(C)C=O) 1.02 ns; (in CO) 0.44 ns; (in O) 1.75 ns; (in OCCO) 1.46 ns.
With `Cn1c(-c2ccc(-c3nc(-c4ccccc4)c(-c4ccccc4)n3C)s2)nc(-c2ccccc2)c1-c1ccccc1`, for the setting “in CC#N”, the fluorescence lifetime came out at 1.24 ns.
With `CC(C)(C)c1ccc(-c2nnc(-c3c(-n4c5ccccc5c5ccccc54)c(-n4c5ccccc5c5ccccc54)c(-n4c5ccccc5c5ccccc54)c(-n4c5ccccc5c5ccccc54)c3-n3c4ccccc4c4ccccc43)o2)cc1`, the fluorescence lifetime (in Cc1ccccc1) amounted to 2.9 ns.
On to `c1ccc(N2N=C(c3ccc4ccc5cccc6ccc3c4c56)CC2c2ccc3ccc4cccc5ccc2c3c45)cc1` (stereo unspecified), for which the fluorescence lifetime (in ClCCl) came to 2.67 ns.
The compound `O=Cc1cc2c(cc3ccc4cccc5ccc2c3c45)[nH]1` returned a fluorescence lifetime (in CCOC(C)=O) of 2.55 ns.
Where the note is “in CC#N”, `COc1ccc(C#Cc2ccccc2C#Cc2ccc(OC)cc2)cc1` showed a fluorescence lifetime of 2.14 ns.
For `C=C[C@]12CC[C@H](CC1)N=N2`, the fluorescence lifetime (in CC#N) was 0.56 ns.
Consider `CCN1C(=O)C(C2C(=O)c3c4ccccc4cc4cc5ccccc5c2c34)C(=O)N(CC)C1=S` (stereo unspecified), for which the fluorescence lifetime amounted to 11.1 ns (in C1CCOC1), 13.1 ns (in CCCCCC), 12.4 ns (in Cc1ccccc1) and 10.5 ns (in ClCCl).
In the case of `Cc1cccc(C2=Cc3ccc4ccccc4[n+]3[B-](F)(F)O2)c1`, the fluorescence lifetime (in ClC(Cl)Cl) came to 1.58 ns.
`Cc1ccc(C2=C3C=CC(c4ccccc4)=[N+]3[B-](F)(F)n3c2ccc3-c2ccccc2)cc1` displayed a fluorescence lifetime (in C1CCCCC1) of 1.56 ns; a fluorescence lifetime (in C1CCOC1) of 1.4 ns; a fluorescence lifetime (in C1COCCO1) of 1.59 ns; a fluorescence lifetime (in CCOC(C)=O) of 1.37 ns; a fluorescence lifetime (in CO) of 1.22 ns; a fluorescence lifetime (in Cc1ccccc1) of 2.17 ns. This compound also returned a fluorescence lifetime (in ClC(Cl)Cl) of 1.97 ns.
With `CCCCCCCCC1(CCCCCCCC)c2cc(-c3ccc([Si](C)(C)C)cc3)ccc2-c2ccc(-c3ccc([Si](C)(C)C)cc3)cc21`, the fluorescence lifetime (in CN(C)C=O) amounted to 1.01 ns.
`CNCCCC1c2ccccc2C=Cc2ccccc21`: the fluorescence lifetime was determined as 2.41 ns (in CC#N), 2.38 ns (in CO) and 2.56 ns (in O).
For the compound `O=CC12N=N[C@](C=O)(C3C4CCC(C4)C31)C1[C@@H]3CC[C@@H](C3)[C@H]12` (stereo partly specified), under “in CC#N”, the fluorescence lifetime was 111 ns.
As for `CCOC(=O)C1=CN(Cc2ccccc2)C=C(C(=O)OCC)C1`, the fluorescence lifetime was determined as 25.6 ns (in C1CCOC1) and 28.2 ns (in CO).
On to `CCCCCCCCOc1ccc(C2=C3C(C)=C(C#Cc4ccc(B(c5c(C)cc(C)cc5C)c5c(C)cc(C)cc5C)cc4)C(C)=[N+]3[B-](F)(F)n3c(C)c(C#Cc4ccc(B(c5c(C)cc(C)cc5C)c5c(C)cc(C)cc5C)cc4)c(C)c32)cc1`, for which the fluorescence lifetime amounted to 4.37 ns (in CC#N), 5.4 ns (in CCCCCC) and 4.39 ns (in ClCCl).
Compound `N#CCc1ccccc1-c1cc2ccccc2oc1=O` had a fluorescence lifetime (in ClC(Cl)Cl) of 1.4 ns.
Regarding `CC1(C)c2ccccc2N(c2c(F)cc(-c3nnc(-c4ccccc4)o3)cc2F)c2ccccc21`, for the setting “in Cc1ccccc1”, the fluorescence lifetime is 8.8 ns.
